According to article PMC4626375, “In Vitro Mutational and Bioinformatics Analysis of the M71 Odorant Receptor and Its Superfamily” (PLoS ONE, 2015):

Tests used:
M71 odorant receptor [1] = target: T1, M71 odorant receptor (Mus musculus, UniProt Q60893); design: gene Or8a1
T1 sequence (Q60893 1-309): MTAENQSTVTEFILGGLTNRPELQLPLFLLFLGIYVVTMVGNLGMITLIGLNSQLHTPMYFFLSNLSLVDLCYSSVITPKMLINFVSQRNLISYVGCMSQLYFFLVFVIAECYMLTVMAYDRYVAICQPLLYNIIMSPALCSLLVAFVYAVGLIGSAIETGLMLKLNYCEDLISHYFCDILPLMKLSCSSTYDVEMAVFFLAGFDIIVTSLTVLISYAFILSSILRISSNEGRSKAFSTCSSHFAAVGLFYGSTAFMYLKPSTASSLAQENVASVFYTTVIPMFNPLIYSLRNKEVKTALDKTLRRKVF

M71 odorant receptor [2] = target: T1, M71 odorant receptor; test: patch clamp of dendritic knobs of M71- or M71::GFP-expressing olfactory sensory neurons, dose response; assay type: cell-based; design: gene Or8a1; full-length M71 and M71::GFP C-terminal fusion expressed in olfactory sensory neurons

CCc1occc(=O)c1O [eMLT, ethyl maltol]
patch clamp of dendritic knobs of olfactory sensory neurons, peak current at 10 (M71 odorant receptor [1]): olfactory neurons expressing either M71 or M71::GFP are activated by M71 specific ligands

CC(=O)c1ccccc1N [2aACP, 2-amino acetophenone]
EC50 (M71 odorant receptor [2]): 0.65 ± 0.08 µM
